Reference: patent publication US20170296460A1, “METHOD OF IMPROVING THE APPEARANCE OF PERIORBITAL DYSCHROMIA” (The Procter & Gamble Company, priority 2016, published 2017)

Test system: B16-F1 mouse melanoma cell line
Assay: B16 melanin synthesis inhibition assay
Assay type: cell-based
Conditions: B16-F1 cells, OD 410 nm
Procedure: In this example, a commercially available B16-F1 mouse melanoma cell line from American Tissue Culture Collection, Virginia, USA was employed in a conventional melanin synthesis inhibition assay. The cell culture medium used in the assay is 500 mL of Dulbecco's Modified Eagle's Medium (DMEM), 50 mL Fetal Bovine Serum (FBS), and 5 mL of penicillin-streptomycin liquid. B16-F1 cells that are cultured in this medium and grown to greater than 90% confluency will synthesize melanin. While not intending to be bound by any theory, it is hypothesized that the melanin synthesis is stimulated by the culture medium and/or stress induced by growth to a high confluency. […] Equipment used in the assay include a CO2 incubator, such as a Forma Series Model 3110 by Therma Scientific, Massachusetts, USA; a hemocytometer, such as a Bright Line model by Hauser Scientific, Pennsylvania, USA; and a UV-Visible Spectrum Plate Reader, such as a SpectraMax250 from Molecular Devices, California, USA. […] Day 3: The cells from the T-150 flask are trypsinized, and the concentration of cells is determined using the hemacytometer. […] Read the 96 well plate using the UV-Vis Plate Reader at 410 nm to optically measure the amount of melanin produced between wells that are treated with the pumpkin seed extract and control wells that are not. […] The concentration of test agent needed to provide the IC 50 is recorded.

Oc1ccc(OC2CCCCO2)cc1 (stereo not shown) [Deoxyarbutin]
Concentration Needed for IC 50: 0.008 v/v
